From ChEMBL document CHEMBL4433253, “Development of a novel inducer for EBV lytic therapy” (Bioorg Med Chem Lett, 2019)
≈ marks a conversion by molar mass, not a printed value. Calls of active or inactive are those of the source. The calls are words filed in the database; no cut-off is given here.

Assays:
Human gammaherpesvirus 4 [1] = assay: Reactivation of latent EBV infected in human MUTU-I cells incubated for 48 hrs by steady-glo luciferase reporter assay; format: functional, organism-based; conditions: human gammaherpesvirus 4, MUTU-I
Human gammaherpesvirus 4 [2] = assay: Reactivation of latent EBV infected in human MUTU-I cells incubated for 48 hrs by steady-glo luciferase reporter assay relative to C60; format: functional; parameters: concentration or dose not given beside the values
Human gammaherpesvirus 4 [3] = assay: Reactivation of latent EBV in human SNU-719 cells xenografted NSG mouse assessed as increase in BZLF1 protein level in tumor mass at 30 mg/kg, ip qd for 4 days starting from 28 days post infection by immunoblot analysis; format: functional, organism-based
Human gammaherpesvirus 4 [4] = assay: Reactivation of latent EBV in human AGS cells xenografted NSG mouse assessed as increase in BZLF1 protein level in tumor mass at 25 mg/kg, ip qd for 3 days starting from 35 days post infection by immunoblot analysis
[5] = Stability in mouse plasma; format: ADME, cell-free; conditions: read-out: Stability
[6] = Stability in human plasma; format: ADME, cell-free; conditions: read-out: Stability
[7] = Half life in mouse liver microsomes; format: ADME, Microsome
[8] = Half life in human liver microsomes; format: ADME, Microsome
[9] = Aqueous solubility of compound in pH 7.4 PBS buffer; format: physicochemical

Compound: COc1ccc(C2NCCc3c2[nH]c2ccc(Cl)cc32)cc1 (centres undefined)
- EC50 (Human gammaherpesvirus 4 [1]): 215 nM

Compound: COC(=O)c1ccccc1NC(=O)N1CCc2c([nH]c3ccccc23)C1c1ccc(OC)cc1 (centres undefined)
- Activity (Human gammaherpesvirus 4 [2]): 14%

Compound: COCCOCCOCCOc1ccc(C2c3[nH]c4ccc(Cl)cc4c3CCN2C(=O)Nc2ccccc2Cl)cc1 (centres undefined)
- Activity (Human gammaherpesvirus 4 [3]): Active
- Activity (Human gammaherpesvirus 4 [4]): Active

Compound: COc1ccc(C2c3[nH]c4ccc(Cl)cc4c3CCN2C(=O)c2ccccc2Cl)cc1 (centres undefined)
- EC50 (Human gammaherpesvirus 4 [1]): 2430 nM

Compound: COc1ccc(C2c3[nH]c4ccc(Cl)cc4c3CCN2C(=O)c2cccc(OC)c2)cc1 (centres undefined)
- EC50 (Human gammaherpesvirus 4 [1]): 168 nM
- half-life [5]: > 6 h
- half-life [6]: > 6 h
- t1/2 [7]: 0.517 h
- t1/2 [8]: > 1.5 h
- solubility [9]: 166 µg/mL (≈ 371 µM)

Compound: COC(=O)c1sccc1NC(=O)N1CCc2c([nH]c3ccc(OC)cc23)C1c1ccc(C)cc1 (centres undefined)
- EC50 (Human gammaherpesvirus 4 [1]): 576 nM

Compound: COc1ccc(C2c3[nH]c4ccc(Cl)cc4c3CCN2C(=O)c2ccc(C(F)(F)F)cc2)cc1 (centres undefined)
- EC50 (Human gammaherpesvirus 4 [1]): 434 nM

Compound: COc1ccc(C2c3[nH]c4ccc(Cl)cc4c3CCN2S(=O)(=O)c2ccccc2OC)cc1 (centres undefined)
- EC50 (Human gammaherpesvirus 4 [1]): 4010 nM

Compound: COc1ccc(C2c3[nH]c4ccc(Cl)cc4c3CCN2C(=O)Nc2ccc(OC)cc2OC)cc1 (centres undefined)
- EC50 (Human gammaherpesvirus 4 [1]): 1130 nM

Compound: COc1ccc(C2c3[nH]c4ccc(Cl)cc4c3CCN2C(=O)Nc2cccc(OC)c2)cc1 (centres undefined)
- Activity (Human gammaherpesvirus 4 [2]): 43%

Compound: COc1ccc(C2c3[nH]c4ccccc4c3CCN2C(=O)Nc2ccccc2OC)cc1 (centres undefined)
- Activity (Human gammaherpesvirus 4 [2]): 15%

Compound: COc1ccc(C(=O)N2CCc3c([nH]c4ccc(Cl)cc34)C2c2ccc(OC)cc2)cc1 (centres undefined)
- EC50 (Human gammaherpesvirus 4 [1]): 154 nM

Compound: COc1ccc(C2c3[nH]c4ccc(Cl)cc4c3CCN2C(=O)Nc2ccccc2OC)cc1 (centres undefined)
- EC50 (Human gammaherpesvirus 4 [1]): 169 nM
- Activity (Human gammaherpesvirus 4 [2]): 79%

Compound: COc1ccc(C2c3[nH]c4ccc(Cl)cc4c3CCN2C(=O)c2ccc(Cl)cc2)cc1 (centres undefined)
- EC50 (Human gammaherpesvirus 4 [1]): 228 nM

Compound: COc1ccc(NC(=O)N2CCc3c([nH]c4ccc(Cl)cc34)C2c2ccc(OC)cc2)cc1 (centres undefined)
- Activity (Human gammaherpesvirus 4 [2]): 31%

Compound: COC(=O)c1ccccc1NC(=O)N1CCc2c([nH]c3ccc(Cl)cc23)C1c1ccc(OC)cc1 (centres undefined)
- EC50 (Human gammaherpesvirus 4 [1]): 157 nM
- half-life [5]: > 6 h
- half-life [6]: > 6 h
- t1/2 [7]: > 1.5 h
- t1/2 [8]: 1.3 h
- solubility [9]: < 10 µg/mL

Compound: COc1ccc(C2c3[nH]c4ccc(Cl)cc4c3CCN2S(=O)(=O)c2ccc(OC)cc2)cc1 (centres undefined)
- EC50 (Human gammaherpesvirus 4 [1]): 8030 nM

Compound: COc1ccc(C2c3[nH]c4ccc(Cl)cc4c3CCN2C(=O)c2cccc(CN3CCOCC3)c2)cc1 (centres undefined)
- EC50 (Human gammaherpesvirus 4 [1]): 277 nM

Compound: COC(=O)c1cccc(NC(=O)N2CCc3c([nH]c4ccc(Cl)cc34)C2c2ccc(OC)cc2)c1 (centres undefined)
- Activity (Human gammaherpesvirus 4 [2]): 17%

Compound: COc1ccc(C2c3[nH]c4ccc(Cl)cc4c3CCN2C(=O)c2ccccc2OC)cc1 (centres undefined)
- EC50 (Human gammaherpesvirus 4 [1]): 4270 nM

Compound: COCCOCCOCCOc1ccc(C2c3[nH]c4ccc(Cl)cc4c3CCN2C(=O)Nc2ccccc2C(=O)OC)cc1 (centres undefined)
- Activity (Human gammaherpesvirus 4 [3]): Active
- Activity (Human gammaherpesvirus 4 [4]): Active

Compound: COc1ccc(C2c3[nH]c4ccc(Cl)cc4c3CCN2C(=O)c2ccccc2C(F)(F)F)cc1 (centres undefined)
- EC50 (Human gammaherpesvirus 4 [1]): 1580 nM

Compound: COc1cccc(C(=O)N2CCc3c([nH]c4ccc(Cl)cc34)C2c2ccc(O)cc2)c1 (centres undefined)
- EC50 (Human gammaherpesvirus 4 [1]): 310 nM
- Activity (Human gammaherpesvirus 4 [3]): Active

Compound: O=C(c1cccc(CN2CCOCC2)c1)N1CCc2c([nH]c3ccc(Cl)cc23)C1c1ccc(Cl)cc1 (centres undefined)
- EC50 (Human gammaherpesvirus 4 [1]): 277 nM

Compound: CCOC(=O)c1ccccc1NC(=O)N1CCc2c([nH]c3ccc(OC)cc23)C1c1ccc(C)cc1 (centres undefined)
- EC50 (Human gammaherpesvirus 4 [1]): 1080 nM
